The values below come from PubChem BioAssay AID1996.

A word on the solubility (kinetic): it is solubility judged after dilution from a stock solution rather than from solid.

Values after ≈ are worked out from the molar mass of the structure shown. Some results are limits rather than exact numbers.

The conditions of the data set: buffer; pH 7.4; 200.0 µM.
In turn, `COc1ccc2nc(SCCC(=O)O)cc(C)c2c1` showed a solubility (kinetic) of over 41.6 µg/mL.
Then `C/C(=N\S(=O)(=O)c1ccc(C)cc1)N(C)C`, with over 36 µg/mL; and `COC(=O)C1CCN(CC(=O)Nc2ccc3c(c2)OCCO3)CC1`, with over 50.2 µg/mL.
`CCC1(CC)N=C(c2ccccc2)C(=S)N1` registered a solubility (kinetic) of over 34.9 µg/mL.
Molecule `Cc1ccc(NC2=C(Cl)C(=O)OC2OC(=O)c2ccc(C)cc2)cc1` (configuration not stated) displayed a solubility (kinetic) of 2.6 µg/mL (≈ 7.27 µM).
With `CC1=C(C(=O)OCC2CCCCC2)C(c2cccc(O)c2)NC(=O)N1` (configuration not stated) the figure was 37.3 µg/mL (≈ 108 µM).
With `CCOC(=O)CN1C(=O)SC(Nc2ccc(C)cc2)C1=O` (configuration not stated) the figure was over 46.3 µg/mL.
Then `O=C(/C=C/c1cccnc1)c1ccc([N+](=O)[O-])cc1`, with 9.8 µg/mL (≈ 38.5 µM).
`COc1cccc(C(=O)N2CCC(C(=O)NCc3ccco3)CC2)c1` gave a solubility (kinetic) of 50.6 µg/mL (≈ 148 µM).
With `Cc1nc(-c2ccc(S(=O)(=O)NCc3ccccn3)s2)cs1` the figure was over 52.7 µg/mL.
Molecule `CC(C)OC(=O)Cn1cc(C#N)c2ccccc21` displayed a kinetic solubility of over 36.3 µg/mL.
The molecule `CCON1C(=O)C(C)(C)N(OCC)C(=O)C1(C)C` returned a solubility (kinetic) of over 38.7 µg/mL.
With `O=C(COC(=O)COc1ccccc1F)NC1CC1` the figure was 37 µg/mL (≈ 138 µM); with `Cc1ccccc1OCC(=O)OCC(=O)Nc1ccc(Cl)cn1`, 47.2 µg/mL (≈ 141 µM); with `Cc1ccc(C(CNC(=O)c2ccco2)N2CCN(C)CC2)cc1` (configuration not stated), over 49.1 µg/mL.
With `CCN(Cc1ccccc1)C(=O)COC(=O)c1cnc(C)cn1` the figure was 38 µg/mL (≈ 121 µM); with `Cc1cc(N)ccc1NC(=O)CN1CCCC1`, 23.1 µg/mL (≈ 99 µM).
With `O=C1CCCN1CCCNc1ncnc2sccc12` the figure was over 41.5 µg/mL.
For the molecule `COc1cc(/C=C(\NC(C)=O)C(=O)O)cc(OC)c1OC`, the solubility (kinetic) is over 44.3 µg/mL.
With `Cn1nccc1C(=O)NC1CCN(Cc2ccccc2)CC1` the figure was over 44.8 µg/mL; with `O=C(/C=C/NCc1cccnc1)C(F)(F)C(F)(F)F`, over 42 µg/mL.
Then `CCn1c(Oc2ccccc2)nc2c1c(=O)n(C)c(=O)n2C`, with 37.8 µg/mL (≈ 126 µM); and `CC(C)CNC(=O)C1CCCN(C(=O)NCc2ccccc2)C1` (configuration not stated), with over 47.6 µg/mL.
Then `Clc1cc(NC2CCCCC2)ncn1`, with over 31.8 µg/mL.
The molecule `COc1ccc(C(=O)OCC(=O)NC2CC2)cc1F` came in with a kinetic solubility of 32.6 µg/mL (≈ 122 µM).
Then `O=C(OCC(=O)c1ccc[nH]1)C1=COCCO1`, with over 35.6 µg/mL.
Then `O=C(O)Cc1c[nH]c2ccc(O)cc12`, with over 28.7 µg/mL; and `Cc1ccccc1CS(=O)(=O)CC(O)CN1CCCC1=O` (configuration not stated), with over 46.7 µg/mL; and `COc1cccc(CNC(=O)COC(=O)C23CC4CC(CC(Cl)(C4)C2)C3)c1`, with 21.1 µg/mL (≈ 53.8 µM).
Then `O=C(NCC(=O)N1CCCCCCC1)c1ccccc1Cl`, with over 46.3 µg/mL; and `Cc1ccc(SCC(=O)NC(C)c2ccccc2)cc1` (configuration not stated), with over 42.8 µg/mL.
Consider `COc1cccc(Oc2c(C)oc3c(CN4CCCC4)c(O)ccc3c2=O)c1`, for which the kinetic solubility was 40.6 µg/mL (≈ 106 µM).
With `CCC(=O)NC(c1ccccc1)c1c(OC(C)=O)ccc2ccccc12` (configuration not stated) the figure was over 52.1 µg/mL.
In turn, `Cc1[nH]c2ccccc2c1C(=O)CCl` had a kinetic solubility of 12.1 µg/mL (≈ 58.3 µM).
Then `Cc1ccc(CNC(=O)CCNC(=O)c2ccc([N+](=O)[O-])cc2)cc1`, with 41.2 µg/mL (≈ 121 µM); and `Cc1oc(S(=O)(=O)N(C)C)cc1C(=O)Nc1ccc(Cl)cc1`, with under 0.4 µg/mL.
Then `NC(N)=NS(=O)(=O)c1ccc(NC(=S)NC(=O)c2ccccc2)cc1`, with 3.9 µg/mL (≈ 10.3 µM).
Then `Nc1ccc2nc(NC(=O)C3CCCCC3)sc2c1`, with 30.2 µg/mL (≈ 110 µM).
In turn, `Cc1cc(SCc2ccccc2C)nc(=O)[nH]1` gave a kinetic solubility of 30.7 µg/mL (≈ 125 µM).
With `C[N+]1(C)CCc2cc3c(cc2[C@H]1[C@@H]1OC(=O)c2c1ccc1c2OCO1)OCO3.[I-]` the figure was over 76.4 µg/mL; with `Cc1ccc(C(=O)C(=O)c2ccc(C)c(N)c2)cc1N`, 35 µg/mL (≈ 130 µM); with `CCCc1c(C)nc(N2CCN(c3cccc(OC)c3)CC2)[nH]c1=O`, 4 µg/mL (≈ 11.7 µM).
Then `CCC1CN(C(=O)NCc2ccc(C)cc2)c2cc(Cl)ccc2O1` (configuration not stated), with under 0.4 µg/mL; and `Cc1ccc(Sc2cnccc2C#N)cc1`, with 15.4 µg/mL (≈ 68.1 µM); and `Cl.ClC(CCN1CCN(Cc2ccccc2)CC1)c1ccccc1` (configuration not stated), with over 60.3 µg/mL.
With `CCCOC(=O)Nc1nc(-c2ccc(C)cc2)c(C)s1` the figure was 1.3 µg/mL (≈ 4.48 µM); with `CCCc1cc(C(=O)N2CCCN(C)CC2)cs1`, over 40 µg/mL; with `Cc1ccc2c(c1)N(CC(=O)N1CCOCC1)C(=O)CO2`, over 43.5 µg/mL.
Consider `O=S(=O)(NC1CCN(Cc2ccccc2)CC1)c1ccc(Cl)cc1`, for which the solubility (kinetic) was over 54.7 µg/mL.
With `NC(=O)COc1ccc2cc(-c3ccccc3)c(=O)oc2c1` the figure was 3.8 µg/mL (≈ 12.9 µM); with `Nc1nc(-c2ccccc2)c(C(=O)Nc2ccccc2)s1`, 9.4 µg/mL (≈ 31.8 µM); with `N#Cc1ccccc1NC(=O)CN1CCN(c2ccccn2)CC1`, over 48.2 µg/mL.
